Data: patent US20160287696A1, “PAN POLLEN IMMUNOGENS AND METHODS AND USES FOR IMMUNE RESPONSE MODULATION” (LA JOLLA INSTITUTE FOR ALLERGY AND IMMUNOLOGY, priority 2013, published 2016)

System: cultured PBMCs of the allergic donors
Experiment: ELISPOT of IL-5 or IFNg production by cultured PBMCs of TG allergic donors in response to peptide
Format: cell-based, human
Conditions: for # Th+: Table 7, peptides per NTGA recognized by T cells of grass allergic donors (n=20); for NTGA's containing at least one T cell epitope, Th+ (Col 2): NTGA number given = criterion met, TG allergic donors n=20; for No of PG+ & th+ peptides per NTGA / No of PP & Th+ peptides per NTGA: Table 6; for No of PG+ & th+ peptides per NTGA: PG+ peptides recognized by T cells of grass allergic donors (n=20); for No of PP & Th+ peptides per NTGA: PP peptides recognized by T cells of grass allergic donors (n=20)
Text: Table 1 indicates for each of the 397 PG+ peptides in which non-grass pollen species a matching peptide with either less than 3, less than 2 or zero mismatches are found. The number of TG grass allergic donors (n=20) with an in vitro T cell response to the TG peptide sequence is also shown.
A set of 93 proteins from Timothy grass (TG) pollen and the assembly of 822 peptides (15 mers) predicted to promiscuously bind HLA class II molecules shown in Table 9 and the immune reactivity in allergic donors have been reported in PCT application WO 2013/119863. […] Immune reactivity was determined by the production of IL-5 or IFNg from cultured PBMCs of the allergic donors in response to stimulation with a peptide and IL-5 and IFNg were measured by ELISPOT as described in Oseroff C et al, 2010.
In short, T cell immune reactivity was determined using PBMCs isolated from study participants and stored in liquid nitrogen until further use. For experimental testing, PBMCs were thawed and expanded in vitro with TG pollen extract (50 μg/mL) or the peptide pool ([…]). The TG extract and peptide pools had each been previously titrated to determine optimal stimulation concentrations.
Cytokine production by cultured PBMCs in response to antigen stimulation was measured by ELISPOT. Cells (1×10^5 cells/well) were plated and incubated with peptide (10 μg/mL), the peptide pool (5 μg/mL), or the TG extract (50 μg/mL). Phytohaemagglutinin (10 μg/mL) and medium alone were used as positive and negative controls, respectively. Samples were considered to produce a cytokine if 100 spot-forming cells (SFCs)/10^6 PBMCs were detected, with P .05 and a stimulation index of 2 or more. Criteria for individual peptides were the same except that a minimum of 20 SFCs were required for a sample to be counted as positive.
Table 3 lists the 397 PG+ peptides and indicates for each non-grass pollen species whether a matching peptide with either less than 3, less than 2 or zero mismatches could be detected. The immune reactivity of the TG peptide was assessed as the number of TG grass allergic donors (n=20) having in vitro T cell response against the TG peptide.

| Substance | # Th+ | NTGA's containing at least one T cell epitope, Th+ (Col 2) | No of PG+ & th+ peptides per NTGA | No of PP & Th+ peptides per NTGA |
| --- | --- | --- | --- | --- |
| 75 (GTIRNIINGTVFREP) [compound 75] | 0 | – | – | – |
| 78 (GRFKDIFQAVYEADW) [compound 78] | 0 | – | – | – |
| 79 (WYEHRLIDDMVAYAL) [compound 79] | 0 | 79 | 1 | 0 |
| 80 (VQSDFLAQGFGSLGL) [compound 80] | 0 | – | – | – |
| 81 (NSIASIFAWTRGLAH) [compound 81] | 0 | – | – | – |
| 82 (DNARLLDFTQKLEDA) [compound 82] | 0 | – | – | – |
| 83 (LNTEEFIDAVAAELQ) [compound 83] | 0 | 83 | 11 | 4 |
| 84 (KSLVRAFMWDSGSTV) [compound 84] | 0 | 84 | 4 | 3 |
| 85 (RVLSCDFKPTRPFRI) [compound 85] | 0 | – | – | – |
| 88 (IKLKNMLFHTARINC) [compound 88] | 0 | – | – | – |
| 92 (SVGFVETLENDLAQL) [compound 92] | 0 | – | – | – |
| 93 (LGEAPYKFKSALEAV) [compound 93] | 0 | – | – | – |
